The results in this text go back to patent US11725000B2, “Apoptosis inhibitors” (National Institute of Biological Sciences, Beijing, priority 2017, dated 2023).

Where a SMILES comes first, the peptide text is derived from it. The star is where a group is joined. Cbz = O=C(OCc1ccccc1)*; CH2F = FC*

Assay type in all cases: cell-based
The test system of assay [1] is U2OS_Bim cells. The experiment in a line: Immunostaining of cytochrome c (mitochondrial cytochrome c release). The note with it: immunofluorescence after induced Bim overexpression. The method, then: U2OS_Bim cells were plated in Lab-Tek eight-chambered slides (Thermo Scientific). 24 hrs later, cells were treated with experimental compounds for one hour. Cell were washed by PBS for 10 min and fixed with 2% PFA for 30 min at room temperature. Following three additional washes in PBS, cells were incubated in PBS containing 0.1% Triton X-100 for 10 min. Cytochrome c antibody (diluted in 5% BSA in PBST) was incubated with the cells at 4° C. overnight. Cells were then washed three times with PBST and incubated with secondary antibody at room temperature for 1 h. Following three additional washes in PBS, the slides were covered and sealed and then examined with a Zeiss LSM 510 confocal microscope.

The subject of assay [2] is U2OS_Bim cells. The assay can be described thus: Irreversibility binding assay (cellular wash/no wash assay). The text has this:
It has been reported that sulfone can serve as a good leaving group in SN2 substitution reactions when linked to electron withdrawing groups. Active compounds in our SAR study all contained a —CF3 substituted pyrimidine ring linked to the sulfone group. Replacement of CF3 at the R2 position with groups with less powerful electron-withdrawing properties totally abolished the apoptosis inhibition activity. […] To test the reactivity of representative TC09 compounds, we performed model reactions using different nucleophilic reagent (cysteine, lysine, and glutathione) with compounds 1, 6, and 27. […] To further explore the binding mode of the active compounds in a cellular context, we next performed a cellular wash/no wash assay for determining the reversibility of compound-target interactions. Following compound incubation, one subset of cells was washed several times to eliminate the free test compounds, and the other subset was not washed. Apoptosis was induced and the viability of cells was then measured and EC50 under wash conditions was compared with no wash conditions.[9]
U2OS_Bim cells were plated at a density of 3000 cells per well in 96-well plates. 24 hrs later, duplicate sets of cells were treated with experimental compounds for 3 hrs. One subset of these cells were treated with 0.1 μg/mL DOX to trigger apoptosis. The remaining subset of cells was washed free of the experimental compound using warmed medium, 3 times, before being treated with 0.1 μg/mL DOX. 24 hours after DOX addition, cell viability was determined by measuring the ATP levels using a CellTiter-Glo kit. Cell survival rate was calculated. zVAD (20 μM) was used as a positive control.

For assay [3], the system named is U2OS_Bim cells. The assay can be described thus: Apoptosis inhibition assay (Bim-induced apoptosis, cell viability by ATP level). The note with it: U2OS_Bim cells. In a few lines: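 Apoptosis was triggered by doxycycline (0.1 μg/mL) induction of Bim, one hour after compound addition to U2OS_Bim cells. Survival was measured after 24 h from cellular ATP (CellTiter-Glo), relative to DMSO, with zVAD at 20 μM as rescue control. Data are duplicate means, some estimated from preliminary results.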

Assay [4] has as its system U2OS_Bim cells. The experiment in a line: TMRM staining (mitochondrial membrane potential). The note with it: DOX induction of Bim. As for the experimental part:
U2OS_Bim cells were plated at a density of 3000 cells per well in 96-well optical plates. 24 hrs later, cells were treated with experimental compounds for one hour. The cells were then treated with 0.1 μg/mL DOX to trigger apoptosis. 4 hrs later, 50 nM TMRM was added to each well and incubated for 30 min. Cells were washed 3 times with warmed PBS buffer and examined with a Zeiss LSM 510 confocal microscope.

In assay [5] the test system is U2OS_Bim cells. The experiment in a line: Long-term cell survival under constant apoptotic insult (DOX). The method, then:
We therefore tested the long-term impact of TC09 compounds on cells experiencing constant apoptotic insult. […] Remarkably, in the presence of tested TC09 compounds, the cells continued to proliferate, similar to cells grown under normal conditions.
The U2OS_Bim cells were all killed when DOX was added, even in the presence of z-VAD-FMK.

Setting [6] is: no wash, 3 hrs compound incubation before DOX, read-out: EC50 (no wash).

Usually EC50 stands for the concentration at which the effect is half-maximal. As to `Cc1ccc(O)c(NC(=O)CCCS(=O)(=O)c2nc(-c3cccs3)cc(C(F)(F)F)n2)c1` [Hit], the “mitochondrial cytochrome c release” value in assay [1] is “could prevent cytochrome c release”. The EC50 in assay [2] (cells washed free of compound 3 times before DOX, read-out: EC50 (wash assay)) is 3.9 µM; in assay [2] (setting [6]), 4.01 µM; in assay [3] (DOX-induced Bim overexpression, viability 24 h after DOX, read-out: EC50), 4.01 µM; in assay [3] (means of duplicates, numbering of Tables 4a/4b, read-out: EC50), 1 to 10 µM; in assay [3] (read-out: EC50 in increasing cell survival rates following apoptosis induced by Bim overexpression) it was 4 µM.

Turning to `COC(=O)C[C@H](NC(=O)[C@H](C)NC(=O)[C@@H](NC(=O)OCc1ccccc1)C(C)C)C(=O)CF` [zVAD] (Cbz-Val-Ala-Asp(OMe)-CH2F), the concentration giving a half-maximal response (EC50) in assay [2] (setting [6]) was determined as 69.2 µM. For the same compound, in assay [4], the “mitochondria membrane potential and TMRM enrichment after apoptosis induction” value is recorded as “cannot be achieved”. Moreover, the “cell colonies after 1 week culture with DOX (crystal violet)” value in assay [5] (1 week) was “all killed”. Moreover, in assay [5] (constant apoptotic insult, up to third day), the “cell survival/proliferation over days after addition of DOX” value is on record as “clearly delayed death, most of the cells had died by the third day”.
